Structures are written as SMILES.

These results are taken from ChEMBL document CHEMBL5346866, “What about the progress in the synthesis of flavonoid from 2020?” (Eur J Med Chem, 2022).

What all share (format): functional, cell-based
The subject of experiment [1] is SK-OV-3. The experiment is described as follows: Anti-proliferative activity against human SK-OV-3 cells assessed as cell growth inhibition incubated for 72 hrs by CCK-8 assay. The settings on record: SK-OV-3, 72 h.
Experiment [2] deals with HCC1954. Kind of experiment: Anti-proliferative activity against human HCC1954 cells assessed as cell growth inhibition incubated for 72 hrs by CCK-8 assay. The settings on record: HCC1954, 72 h. A general note: Tetrazolium assays rely on reduction of a dye to a coloured formazan, in cell work by metabolically active cells.
Experiment [3] has as its system HeLa. Kind of experiment: Anti-proliferative activity against human HeLa cells assessed as cell growth inhibition incubated for 72 hrs by CCK-8 assay.
For experiment [4], the system named is DU-145. Kind of experiment: Antiproliferative activity against human […] cells assessed as cell growth inhibition by SRB assay. In general terms: The SRB assay estimates cell density from bound dye.
In experiment [5] the test system is PC-3. Kind of experiment: Antiproliferative activity against human PC-3 cells assessed as cell growth inhibition by SRB assay.

`COc1ccc(-c2oc3cc(O)cc(O)c3c(=O)c2OCc2cn([C@@H]3O[C@H](COC(C)=O)[C@@H](OC(C)=O)[C@H](OC(C)=O)[C@H]3OC(C)=O)nn2)cc1O`: the IC50 (as a rule, the midpoint of a concentration-inhibition curve) in experiment [1] is 30600 nM; in experiment [2], 43400 nM.

Take `COc1ccc(-c2cc(=O)c3c(C)cc(OCc4cn([C@@H]5O[C@H](COC(C)=O)[C@@H](O[C@H]6O[C@H](COC(C)=O)[C@@H](OC(C)=O)[C@H](OC(C)=O)[C@H]6OC(C)=O)[C@H](OC(C)=O)[C@H]5OC(C)=O)nn4)cc3o2)cc1`: the IC50 in experiment [3] came out at 14700 nM.

For the molecule `C[C@@]1([N+](=O)[O-])C(=O)c2cc(F)ccc2O[C@H]1CC(=O)NC12CC3CC(CC(C3)C1)C2`, the IC50 in experiment [4] came to 640 nM; in experiment [5], 820 nM. On to `C[C@]1([N+](=O)[O-])C(=O)c2cc(F)ccc2O[C@@H]1CC(=O)NC12CC3CC(CC(C3)C1)C2`, for which the IC50 in experiment [4] worked out at 1650 nM; in experiment [5] it was 1540 nM.

As for `CC1([N+](=O)[O-])C(=O)c2cc(F)ccc2OC1CC(=O)NC12CC3CC(CC(C3)C1)C2` (racemic), the results for the IC50 in experiment [4] and in experiment [5] were 1210 nM and 940 nM, respectively.
